Entries after “also recorded” stand apart in the source; their conditions may differ. Read-outs that look alike come from different tables or passages of the source.
Columns and labels:
CHIKV replicon [1] = experiment: microbe, parasite or virus in culture; conditions: Chikungunya virus, 48 h, read-out: inhibition of the CHIKV replicon (Rluc marker levels)
primary microglial cells = experiment: Microglial morphology cell count (ramified vs amoeboid) in LPS-treated cultures; format: cell-based, Wistar rats; conditions: 2.5 μg/mL (7.2 μM) and 5.0 μg/mL (14.4 μM), 72 h
Procedure: Primary microglial cell cultures were prepared from brains of newborn Wistar rats. Ethics approval for the experiments was granted by the EBIOTEC Review Board (Valter Lombardi, Iván Carrera and Lucía Fernández-Novoa; Project Identification Code: Sinularia Project October 2013; approved 30 October 2013). The neocortex of one-day-old postnatal rats was aseptically dissected out, and the meninges and blood vessels were carefully removed. Following cutting in a medium containing 20% horse serum, the suspension was filtered through a […] and transferred as a single cell suspension to culture dishes, using 5.0 mL of medium per dish. The cultures were incubated at 37 °C in an atmosphere containing 5% CO2. The culture medium consisted of Minimum Essential Medium Eagle, supplemented with L-glutamine, amino acids, vitamins, penicillin, gentamicin, sodium bicarbonate and 20% heat-inactivated horse serum. The medium was changed twice a week. After 1 week, the concentration of horse serum was reduced to 10%. After sixteen days in culture, cells were treated with 1 μg/mL of lipopolysaccharide (LPS). […] After 72 h of incubation, cells were counted, and 2.5 mL of the supernatants were collected from each well and frozen at −40 °C for cytokine analyses. […]

cytokine release = experiment: Inhibition of cytokine release in primary microglial cells, whole cytokine panel (summary statements); format: cell-based, Wistar rats; conditions: Rattus norvegicus
Procedure: Primary microglial cell cultures were prepared from brains of newborn Wistar rats. Ethics approval for the experiments was granted by the EBIOTEC Review Board (Valter Lombardi, Iván Carrera and Lucía Fernández-Novoa; Project Identification Code: Sinularia Project October 2013; approved 30 October 2013). The neocortex of one-day-old postnatal rats was aseptically dissected out, and the meninges and blood vessels were carefully removed. Following cutting in a medium containing 20% horse serum, the suspension was filtered through a […] and transferred as a single cell suspension to culture dishes, using 5.0 mL of medium per dish. […] After 72 h of incubation, cells were counted, and 2.5 mL of the supernatants were collected from each well and frozen at −40 °C for cytokine analyses. […]
The supernatants obtained from cell cultures were analyzed for TNF-α, IL-1β, IL-4, IL-6, IL-8, IL-10 and IL-18 using commercially available ELISA kits following the manufacturers’ instructions. […] The cytokine concentration was calculated from a standard curve of the corresponding recombinant cytokine.
The cytotoxicity of the compounds was measured by the colorimetric methyl thiazol tetrazolium (MTT) assay and scored as a percentage of the absorbance reduction of treated cultures versus untreated control cultures. […] The solutions were shaken for 20 min, and the absorbance was measured at 570 nm. […]

CHIKV replicon [2] = conditions: summary statement
BHK-CHIKV-NCT cells [3] = experiment: Cytotoxicity assay by ATP quantitation (CellTiter GLO); conditions: 100 μM, cell concentration lowered to 3000 cells/well
BHK-CHIKV-NCT cells [4] = experiment: Cell-IQ live cell imaging, cytotoxicity by cell classification (viable cells); conditions: 100 μM, 48 h, 3000 cells/well

SMILES | inhibition at 100 µM (CHIKV replicon [1]) [%] | effect on ramified (RM) and amoeboid (AM) microglial cell density (primary microglial cells) | IC50 (cytokine release; converted from μg/mL, range over all cytokines) [µM] | IC50 (cytokine release; range over IL-1β, IL-6, IL-8, IL-18, TNF-α, IL-4, IL-10, read-out: IC50-values for the inhibition of cytokine release, range over cytokines) [µg/mL] | overall activity in the CHIKV replicon model (CHIKV replicon [2]) | reduction of ATP level (BHK-CHIKV-NCT cells [3]) [%] | decrease in the amount of viable cells (living or dividing) (BHK-CHIKV-NCT cells [4]) [%]
C=C(C)[C@@H]1CC(=O)[C@H]2[C@H](C1)[C@@H]1C(=O)O[C@@H]3C[C@@]4(C)O[C@H]2C(=O)[C@@H]4[C@H]13 [Compound 6, ineleganolide] | 0.5 to 63 | – | – | – | – | – | –
C=C(C)[C@@H]1C/C=C2\C(=O)O[C@@H](C[C@]3(C)CC(=O)[C@@H](CC(=O)C1)O3)[C@@H]2O [Compound 2, sinuleptolide] | > 60 | significant RM and AM mean differences; also recorded: significantly reduce the number of activated amoeboid cells | 1.4 to 8.3 | 0.5 to 2.9 | moderate inhibition | 44 | > 80
C=C(C)[C@@H]1C/C=C2\C(=O)O[C@@H](C[C@]3(C)CC(=O)[C@H](CC(=O)C1)O3)[C@@H]2O [Compound 1, 5-epi-sinuleptolide] | > 60 | – | – | – | moderate inhibition | 39 | > 80
C=C(C)C1CCC23OC2C(CC2(C)CC(=O)C(CC(=O)C1)O2)OC3=O (stereo not shown) [Compound 3, scabrolide D] | 44 | – | – | – | – | – | –

From publication PMC4113814, “Bioactive Cembrane Derivatives from the Indian Ocean Soft Coral, Sinularia kavarattiensis” (Marine Drugs, 2014)
